# Data published in the supplement of paper PMC10307832.
# Columns and labels:
# Test in all cases: relative viability (nuclei count vs DMSO), 5 days (fraction); higher = more cells survive
# [1] = compound: CC1=CC=C(C=C1)C(=O)CN2C3=C(CCCC3)SC2=N [Pifithrin_alpha] + C[C@]1(O)C[C@@H](c2nc(-c3ccc4ccc(-c5ccccc5)nc4c3)c3c(N)nccn32)C1 [Linsitinib] (partner 1 µM)
# Method in brief: (§1)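 Five library-drug doses in √10 steps were combined with a fixed anchor-drug dose, or a single drug was given alone, by pin tool to lung cancer cell lines in 1536-well plates the day after seeding. Nuclei were stained and counted after 5 days. Relative viability is the nuclei count in treated wells over that in vehicle wells, taken as the median of duplicate plates.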
# [2] = compound: CC1=CC=C(C=C1)C(=O)CN2C3=C(CCCC3)SC2=N [Pifithrin_alpha] + O=C(c1cc(Cc2n[nH]c(=O)c3ccccc23)ccc1F)N1CCN(C(=O)C2CC2)CC1 [Olaparib] (partner 8 µM)
# Method in brief: as §1
# [3] = compound: CC1=CC=C(C=C1)C(=O)CN2C3=C(CCCC3)SC2=N [Pifithrin_alpha] + C[C@@H](Oc1cc(-c2cnn(C3CCNCC3)c2)cnc1N)c1c(Cl)ccc(F)c1Cl [Crizotinib] (partner 1 µM)
# Method in brief: as §1
# [4] = compound: CC1=CC=C(C=C1)C(=O)CN2C3=C(CCCC3)SC2=N [Pifithrin_alpha] + Cc1nc(NC(=O)N2CCC[C@H]2C(N)=O)sc1-c1ccnc(C(C)(C)C(F)(F)F)c1 [Alpelisib] (partner 2 µM)
# Method in brief: as §1
Cell Line,relative viability ([1]; first compound 1 µM),relative viability ([1]; first compound 3.162 µM),relative viability ([1]; first compound 10 µM),relative viability ([1]; first compound 100 µM),relative viability ([2]; first compound 1 µM),relative viability ([2]; first compound 3.162 µM),relative viability ([2]; first compound 10 µM),relative viability ([2]; first compound 100 µM),relative viability ([3]; first compound 1 µM),relative viability ([3]; first compound 3.162 µM),relative viability ([3]; first compound 10 µM),relative viability ([3]; first compound 100 µM),relative viability ([4]; first compound 1 µM),relative viability ([4]; first compound 3.162 µM),relative viability ([4]; first compound 10 µM),relative viability ([4]; first compound 100 µM),relative viability ([1]; first compound 31.62 µM),relative viability ([2]; first compound 31.62 µM),relative viability ([3]; first compound 31.62 µM),relative viability ([4]; first compound 31.62 µM)
LK-2,0.608,0.728,0.544,0.646,0.554,0.833,0.933,0.776,0.2,0.22,0.217,0.212,1.06,1.03,1.02,1.56,,,,
LOU-NH91,0.789,0.849,0.828,0.846,0.821,0.908,0.864,0.795,0.704,0.722,0.748,0.654,0.63,0.637,0.635,0.583,0.753,0.523,0.689,0.616
LU99A,0.539,0.64,0.619,0.529,0.248,0.242,0.277,0.236,0.565,0.633,0.496,0.699,0.503,0.576,0.543,0.646,,,,
LXF-289,0.985,0.967,0.959,0.961,1.16,0.994,1.1,1.16,0.878,0.813,0.805,0.788,1.09,1.01,1.08,1.03,0.869,0.717,0.696,0.921
NCI-H522,,,,,0.594,0.604,0.618,0.564,,,,,,,,,,0.516,,
NCI-H1395,,1.05,1.03,0.974,,0.443,0.442,0.432,,,,,,1.06,1.13,0.958,0.638,,,0.55
NCI-H1563,1.17,1.29,1.04,1,,,,,0.907,0.846,0.714,0.731,0.967,0.919,0.936,0.82,1.06,,0.832,0.922
NCI-H1648,,,,,1.1,0.741,0.963,0.682,,,,,,,,,,0.619,,
NCI-H1650,,,,,0.596,1.09,0.373,0.408,0.979,0.912,0.936,0.792,,,,,,0.298,0.648,
NCI-H1793,0.896,0.7,0.812,0.964,1.01,0.757,0.798,0.649,,,,,0.752,0.68,0.839,0.538,0.787,0.365,,0.73
NCI-H2170,,,,,0.657,0.593,0.541,0.551,1.3,1.32,1.24,1.19,0.799,0.821,0.756,0.744,,0.309,0.96,0.537
NCI-H2342,,,,,0.519,0.415,0.42,0.43,,,,,,,,,,0.373,,
SW 900,,,,,0.646,0.57,0.56,0.487,,,,,,,,,,0.378,,
